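Interpolation was linear, between the two tested concentrations surrounding the appropriate level; five concentrations were tested over 48 hours in 96-well plates. The concentration for full growth arrest is given as TGI.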
Assays:
Assay in all cases: NCI anticancer screen, dose series, 48 h
CAKI-1 renal = system: CAKI-1 renal
SN12C renal = system: SN12C renal
DLD-1 colon = system: DLD-1 colon
SNB-19 CNS = system: SNB-19 CNS
U251 CNS = system: U251 CNS
NCI-H226 lung = system: NCI-H226 lung
RXF 393 renal = system: RXF 393 renal
KM12 colon = system: KM12 colon
786-0 renal = system: 786-0 renal
KM20L2 colon = system: KM20L2 colon
UO-31 renal = system: UO-31 renal
SK-MEL-28 melanoma = system: SK-MEL-28 melanoma
MOLT-4 leukemia = system: MOLT-4 leukemia
LXFL 529 NSCLC = system: LXFL 529 NSCLC
TK-10 renal = system: TK-10 renal
SK-OV-3 ovarian = system: SK-OV-3 ovarian
DMS 273 small cell lung = system: DMS 273 small cell lung
MALME-3M melanoma = system: MALME-3M melanoma
IGROV1 ovarian = system: IGROV1 ovarian
SK-MEL-2 melanoma = system: SK-MEL-2 melanoma
HCT-15 colon = system: HCT-15 colon
SW-620 colon = system: SW-620 colon
UACC-257 melanoma = system: UACC-257 melanoma
SF-268 CNS = system: SF-268 CNS
A498 renal = system: A498 renal
SK-MEL-5 melanoma = system: SK-MEL-5 melanoma
HCT-116 colon = system: HCT-116 colon
SF-539 CNS = system: SF-539 CNS
M19-MEL melanoma = system: M19-MEL melanoma
OVCAR-8 ovarian = system: OVCAR-8 ovarian
M14 melanoma = system: M14 melanoma
HCC-2998 colon = system: HCC-2998 colon
OVCAR-3 ovarian = system: OVCAR-3 ovarian
SR leukemia = system: SR leukemia
HOP-62 NSCLC = system: HOP-62 NSCLC
SNB-75 CNS = system: SNB-75 CNS
NCI-H522 lung = system: NCI-H522 lung
K-562 leukemia = system: K-562 leukemia
OVCAR-4 ovarian = system: OVCAR-4 ovarian
HL-60(TB) leukemia = system: HL-60(TB) leukemia
NCI-H460 lung = system: NCI-H460 lung
HOP-18 NSCLC = system: HOP-18 NSCLC
RPMI-8226 leukemia = system: RPMI-8226 leukemia
ACHN renal = system: ACHN renal
SNB-78 CNS = system: SNB-78 CNS
CCRF-CEM leukemia = system: CCRF-CEM leukemia
UACC-62 melanoma = system: UACC-62 melanoma
DMS 114 small cell lung = system: DMS 114 small cell lung
COLO 205 colon = system: COLO 205 colon
A549 NSCLC = system: A549 NSCLC
HOP-92 NSCLC = system: HOP-92 NSCLC
XF 498 CNS = system: XF 498 CNS
EKVX NSCLC = system: EKVX NSCLC
NCI-H23 lung = system: NCI-H23 lung
LOX IMVI melanoma = system: LOX IMVI melanoma
OVCAR-5 ovarian = system: OVCAR-5 ovarian
SF-295 CNS = system: SF-295 CNS
HT29 colon = system: HT29 colon

C=CC1(NS(=O)(=O)c2ccc(C)cc2)CCC(C(C)(C)C)CC1 (stereo not given)
TGI (CAKI-1 renal): > 100 µM
TGI (SN12C renal): > 100 µM
TGI (DLD-1 colon): > 100 µM
TGI (SNB-19 CNS): > 100 µM
TGI (U251 CNS): > 100 µM
TGI (NCI-H226 lung): > 100 µM
TGI (RXF 393 renal): 54.8 µM
TGI (KM12 colon): > 100 µM
TGI (786-0 renal): > 100 µM
TGI (KM20L2 colon): > 100 µM
TGI (UO-31 renal): > 100 µM
TGI (SK-MEL-28 melanoma): > 100 µM
TGI (MOLT-4 leukemia): > 100 µM
TGI (LXFL 529 NSCLC): > 100 µM
TGI (TK-10 renal): > 100 µM
TGI (SK-OV-3 ovarian): > 100 µM
TGI (DMS 273 small cell lung): > 100 µM
TGI (MALME-3M melanoma): > 100 µM
TGI (IGROV1 ovarian): > 100 µM
TGI (SK-MEL-2 melanoma): > 100 µM
TGI (HCT-15 colon): > 100 µM
TGI (SW-620 colon): > 100 µM
TGI (UACC-257 melanoma): > 100 µM
TGI (SF-268 CNS): > 100 µM
TGI (A498 renal): > 100 µM
TGI (SK-MEL-5 melanoma): > 100 µM
TGI (HCT-116 colon): > 100 µM
TGI (SF-539 CNS): > 100 µM
TGI (M19-MEL melanoma): > 100 µM
TGI (OVCAR-8 ovarian): > 100 µM
TGI (M14 melanoma): > 100 µM
TGI (HCC-2998 colon): > 100 µM
TGI (OVCAR-3 ovarian): > 100 µM
TGI (SR leukemia): > 100 µM
TGI (HOP-62 NSCLC): > 100 µM
TGI (SNB-75 CNS): 54.1 µM
TGI (NCI-H522 lung): > 100 µM
TGI (K-562 leukemia): > 100 µM
TGI (OVCAR-4 ovarian): > 100 µM
TGI (HL-60(TB) leukemia): > 100 µM
TGI (NCI-H460 lung): > 100 µM
TGI (HOP-18 NSCLC): > 100 µM
TGI (RPMI-8226 leukemia): > 100 µM
TGI (ACHN renal): > 100 µM
TGI (SNB-78 CNS): > 100 µM
TGI (CCRF-CEM leukemia): > 100 µM
TGI (UACC-62 melanoma): > 100 µM
TGI (DMS 114 small cell lung): > 100 µM
TGI (COLO 205 colon): > 100 µM
TGI (A549 NSCLC): > 100 µM

COc1cc2c(cc1OC)NC(=O)NC(Cc1ccc3c(c1)OCO3)CC2 (stereo not given)
TGI (CAKI-1 renal): > 100 µM
TGI (SN12C renal): > 100 µM
TGI (DLD-1 colon): > 100 µM
TGI (SNB-19 CNS): > 100 µM
TGI (RXF 393 renal): > 100 µM
TGI (KM12 colon): > 100 µM
TGI (786-0 renal): > 100 µM
TGI (KM20L2 colon): > 100 µM
TGI (UO-31 renal): > 100 µM
TGI (SK-MEL-28 melanoma): > 100 µM
TGI (MOLT-4 leukemia): > 100 µM
TGI (LXFL 529 NSCLC): > 100 µM
TGI (TK-10 renal): > 100 µM
TGI (SK-OV-3 ovarian): > 100 µM
TGI (HOP-92 NSCLC): > 100 µM
TGI (DMS 273 small cell lung): > 100 µM
TGI (MALME-3M melanoma): > 100 µM
TGI (XF 498 CNS): > 100 µM
TGI (IGROV1 ovarian): > 100 µM
TGI (SK-MEL-2 melanoma): > 100 µM
TGI (HCT-15 colon): > 100 µM
TGI (SW-620 colon): > 100 µM
TGI (UACC-257 melanoma): > 100 µM
TGI (SF-268 CNS): > 100 µM
TGI (SK-MEL-5 melanoma): > 100 µM
TGI (M19-MEL melanoma): > 100 µM
TGI (EKVX NSCLC): > 100 µM
TGI (OVCAR-8 ovarian): > 100 µM
TGI (NCI-H23 lung): > 100 µM
TGI (LOX IMVI melanoma): > 100 µM
TGI (OVCAR-5 ovarian): > 100 µM
TGI (M14 melanoma): > 100 µM
TGI (HCC-2998 colon): > 100 µM
TGI (OVCAR-3 ovarian): > 100 µM
TGI (HOP-62 NSCLC): > 100 µM
TGI (SNB-75 CNS): > 100 µM
TGI (NCI-H522 lung): 76.2 µM
TGI (SF-295 CNS): > 100 µM
TGI (K-562 leukemia): > 100 µM
TGI (OVCAR-4 ovarian): > 100 µM
TGI (HL-60(TB) leukemia): > 100 µM
TGI (NCI-H460 lung): > 100 µM
TGI (RPMI-8226 leukemia): > 100 µM
TGI (ACHN renal): > 100 µM
TGI (SNB-78 CNS): > 100 µM
TGI (CCRF-CEM leukemia): > 100 µM
TGI (UACC-62 melanoma): > 100 µM
TGI (DMS 114 small cell lung): > 100 µM
TGI (COLO 205 colon): > 100 µM
TGI (A549 NSCLC): > 100 µM

CC1=C(C(=O)Nc2ccc([N+](=O)[O-])cc2)C(c2ccc3c(c2)OCO3)C(C(=O)Nc2ccc([N+](=O)[O-])cc2)=C(C)N1
TGI (CAKI-1 renal): > 100 µM
TGI (SN12C renal): > 100 µM
TGI (DLD-1 colon): > 100 µM
TGI (SNB-19 CNS): > 100 µM
TGI (U251 CNS): > 100 µM
TGI (NCI-H226 lung): 55.8 µM
TGI (RXF 393 renal): > 100 µM
TGI (KM12 colon): 24.9 µM
TGI (786-0 renal): > 100 µM
TGI (KM20L2 colon): > 100 µM
TGI (UO-31 renal): > 100 µM
TGI (SK-MEL-28 melanoma): > 100 µM
TGI (LXFL 529 NSCLC): > 100 µM
TGI (SK-OV-3 ovarian): > 100 µM
TGI (HOP-92 NSCLC): 38.9 µM
TGI (DMS 273 small cell lung): 97.4 µM
TGI (MALME-3M melanoma): > 100 µM
TGI (IGROV1 ovarian): > 100 µM
TGI (SK-MEL-2 melanoma): 35 µM
TGI (HCT-15 colon): > 100 µM
TGI (SW-620 colon): > 100 µM
TGI (UACC-257 melanoma): 50.7 µM
TGI (SF-268 CNS): > 100 µM
TGI (A498 renal): 69.1 µM
TGI (HCT-116 colon): > 100 µM
TGI (SF-539 CNS): > 100 µM
TGI (M19-MEL melanoma): 61.6 µM
TGI (EKVX NSCLC): > 100 µM
TGI (OVCAR-8 ovarian): 27.9 µM
TGI (NCI-H23 lung): 57.9 µM
TGI (OVCAR-5 ovarian): > 100 µM
TGI (M14 melanoma): 50.4 µM
TGI (HCC-2998 colon): 57.4 µM
TGI (OVCAR-3 ovarian): > 100 µM
TGI (HOP-62 NSCLC): > 100 µM
TGI (SNB-75 CNS): 45.7 µM
TGI (NCI-H522 lung): > 100 µM
TGI (SF-295 CNS): > 100 µM
TGI (K-562 leukemia): > 100 µM
TGI (OVCAR-4 ovarian): > 100 µM
TGI (HT29 colon): > 100 µM
TGI (NCI-H460 lung): > 100 µM
TGI (HOP-18 NSCLC): > 100 µM
TGI (RPMI-8226 leukemia): 68.5 µM
TGI (ACHN renal): > 100 µM
TGI (SNB-78 CNS): > 100 µM
TGI (UACC-62 melanoma): 59.4 µM
TGI (DMS 114 small cell lung): > 100 µM
TGI (COLO 205 colon): 18.4 µM
TGI (A549 NSCLC): > 100 µM

CCCCN[C@H]1C2C3CC4C5CC(C42)C1(C)C53 (stereo not given in full)
TGI (CAKI-1 renal): > 100 µM
TGI (SN12C renal): > 100 µM
TGI (DLD-1 colon): > 100 µM
TGI (SNB-19 CNS): > 100 µM
TGI (U251 CNS): > 100 µM
TGI (NCI-H226 lung): > 100 µM
TGI (RXF 393 renal): > 100 µM
TGI (KM12 colon): > 100 µM
TGI (786-0 renal): > 100 µM
TGI (KM20L2 colon): > 100 µM
TGI (UO-31 renal): > 100 µM
TGI (SK-MEL-28 melanoma): > 100 µM
TGI (MOLT-4 leukemia): > 100 µM
TGI (LXFL 529 NSCLC): > 100 µM
TGI (TK-10 renal): > 100 µM
TGI (SK-OV-3 ovarian): > 100 µM
TGI (HOP-92 NSCLC): > 100 µM
TGI (DMS 273 small cell lung): > 100 µM
TGI (MALME-3M melanoma): > 100 µM
TGI (IGROV1 ovarian): > 100 µM
TGI (SK-MEL-2 melanoma): > 100 µM
TGI (HCT-15 colon): > 100 µM
TGI (SW-620 colon): > 100 µM
TGI (UACC-257 melanoma): > 100 µM
TGI (SF-268 CNS): > 100 µM
TGI (A498 renal): > 100 µM
TGI (SK-MEL-5 melanoma): > 100 µM
TGI (HCT-116 colon): > 100 µM
TGI (SF-539 CNS): > 100 µM
TGI (M19-MEL melanoma): > 100 µM
TGI (EKVX NSCLC): > 100 µM
TGI (LOX IMVI melanoma): > 100 µM
TGI (OVCAR-5 ovarian): > 100 µM
TGI (M14 melanoma): > 100 µM
TGI (HCC-2998 colon): > 100 µM
TGI (OVCAR-3 ovarian): > 100 µM
TGI (SR leukemia): > 100 µM
TGI (HOP-62 NSCLC): > 100 µM
TGI (SNB-75 CNS): > 100 µM
TGI (NCI-H522 lung): > 100 µM
TGI (SF-295 CNS): > 100 µM
TGI (K-562 leukemia): > 100 µM
TGI (OVCAR-4 ovarian): > 100 µM
TGI (HL-60(TB) leukemia): > 100 µM
TGI (HT29 colon): > 100 µM
TGI (NCI-H460 lung): > 100 µM
TGI (HOP-18 NSCLC): > 100 µM
TGI (RPMI-8226 leukemia): > 100 µM
TGI (ACHN renal): > 100 µM
TGI (SNB-78 CNS): > 100 µM
TGI (CCRF-CEM leukemia): > 100 µM
TGI (UACC-62 melanoma): > 100 µM
TGI (DMS 114 small cell lung): > 100 µM
TGI (COLO 205 colon): > 100 µM
TGI (A549 NSCLC): > 100 µM

Reference: PubChem BioAssay (NCI)
